# Calls of active or inactive are those of the source. No cut-off for these calls is given here.
# How the values were obtained:
# [1] = Antiproliferative activity against human U87MG cells at 0.001 to 100 uM after 24 hrs by MTS assay; type: functional, U-87MG ATCC
# [2] = molecular target: Serine/threonine-protein kinase PAK 6 (Homo sapiens) (UniProt Q9NQU5); assay: Inhibition of His-tagged full-length recombinant human PAK6 expressed in baculovirus system at 100 nM by Z-lyte assay
# [3] = molecular target: T1, 3-phosphoinositide-dependent protein kinase 1 (Homo sapiens) (UniProt O15530); assay: Inhibition of PDK1-mediated cell migration in human U87MG cells at 10 uM […] measured at 6 to 24 hrs by scratch wound assay; type: cell-based; conditions: U-87MG ATCC
# T1 sequence (whole entry): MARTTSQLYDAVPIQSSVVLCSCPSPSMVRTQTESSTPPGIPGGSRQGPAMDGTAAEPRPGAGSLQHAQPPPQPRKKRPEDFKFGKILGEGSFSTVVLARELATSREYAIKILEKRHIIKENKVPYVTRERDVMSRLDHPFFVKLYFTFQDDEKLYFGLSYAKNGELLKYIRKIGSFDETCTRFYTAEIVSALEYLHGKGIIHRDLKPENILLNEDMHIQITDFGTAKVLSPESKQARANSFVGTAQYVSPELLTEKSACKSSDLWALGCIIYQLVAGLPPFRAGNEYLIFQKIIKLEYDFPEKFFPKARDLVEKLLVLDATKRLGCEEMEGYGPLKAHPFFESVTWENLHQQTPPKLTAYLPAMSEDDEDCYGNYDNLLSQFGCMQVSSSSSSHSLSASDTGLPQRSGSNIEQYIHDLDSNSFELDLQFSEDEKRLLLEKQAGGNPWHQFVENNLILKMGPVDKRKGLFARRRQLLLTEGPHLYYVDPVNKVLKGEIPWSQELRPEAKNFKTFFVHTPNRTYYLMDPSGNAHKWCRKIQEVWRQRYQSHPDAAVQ
# [4] = molecular target: Casein kinase I isoform alpha (Homo sapiens) (UniProt P48729); assay: Inhibition of GST-tagged human CSNK1A1 expressed in baculovirus system at 100 nM by Z-lyte assay
# Casein kinase I isoform alpha (Homo sapiens), sequence (P48729 2-337 limits assumed): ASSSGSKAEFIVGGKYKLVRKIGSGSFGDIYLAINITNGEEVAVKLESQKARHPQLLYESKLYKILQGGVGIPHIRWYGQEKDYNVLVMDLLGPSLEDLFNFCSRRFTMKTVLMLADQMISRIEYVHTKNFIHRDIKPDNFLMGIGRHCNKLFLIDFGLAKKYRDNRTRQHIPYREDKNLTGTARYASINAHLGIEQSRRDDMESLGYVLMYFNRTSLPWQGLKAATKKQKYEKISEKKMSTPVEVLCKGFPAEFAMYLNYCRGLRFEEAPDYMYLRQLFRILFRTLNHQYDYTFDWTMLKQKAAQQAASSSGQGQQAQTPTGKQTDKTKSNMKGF
# [5] = molecular target: Serine/threonine-protein kinase B-raf (Homo sapiens) (UniProt P15056); assay: Inhibition of GST-tagged full-length human BRAF expressed in baculovirus system at 100 nM by Z-lyte assay
# [6] = molecular target: Proto-oncogene tyrosine-protein kinase Src (Homo sapiens) (UniProt P12931); assay: Inhibition of His-tagged full-length recombinant human SRC expressed in baculovirus system at 100 nM by Z-lyte assay
# Proto-oncogene tyrosine-protein kinase Src (Homo sapiens), sequence (P12931 2-536 limits assumed): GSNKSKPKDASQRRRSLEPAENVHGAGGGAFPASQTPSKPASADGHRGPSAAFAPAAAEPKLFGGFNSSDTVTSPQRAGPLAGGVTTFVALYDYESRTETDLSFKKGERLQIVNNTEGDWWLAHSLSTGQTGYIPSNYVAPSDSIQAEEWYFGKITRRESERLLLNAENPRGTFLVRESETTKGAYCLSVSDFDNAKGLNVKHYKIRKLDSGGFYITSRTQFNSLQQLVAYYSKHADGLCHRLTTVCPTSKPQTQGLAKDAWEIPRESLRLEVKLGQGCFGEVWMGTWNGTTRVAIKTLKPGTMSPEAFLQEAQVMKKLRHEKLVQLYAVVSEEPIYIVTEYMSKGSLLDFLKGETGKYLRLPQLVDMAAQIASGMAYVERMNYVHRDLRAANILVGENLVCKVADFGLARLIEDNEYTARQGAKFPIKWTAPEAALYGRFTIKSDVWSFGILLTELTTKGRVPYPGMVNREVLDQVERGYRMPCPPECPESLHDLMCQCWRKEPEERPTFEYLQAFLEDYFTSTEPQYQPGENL
# [7] = molecular target: Tyrosine-protein kinase BTK (Homo sapiens) (UniProt Q06187); assay: Inhibition of His-tagged full-length human BTK expressed in baculovirus system at 100 nM by Z-lyte assay
# Tyrosine-protein kinase BTK (Homo sapiens), sequence (Q06187 whole entry): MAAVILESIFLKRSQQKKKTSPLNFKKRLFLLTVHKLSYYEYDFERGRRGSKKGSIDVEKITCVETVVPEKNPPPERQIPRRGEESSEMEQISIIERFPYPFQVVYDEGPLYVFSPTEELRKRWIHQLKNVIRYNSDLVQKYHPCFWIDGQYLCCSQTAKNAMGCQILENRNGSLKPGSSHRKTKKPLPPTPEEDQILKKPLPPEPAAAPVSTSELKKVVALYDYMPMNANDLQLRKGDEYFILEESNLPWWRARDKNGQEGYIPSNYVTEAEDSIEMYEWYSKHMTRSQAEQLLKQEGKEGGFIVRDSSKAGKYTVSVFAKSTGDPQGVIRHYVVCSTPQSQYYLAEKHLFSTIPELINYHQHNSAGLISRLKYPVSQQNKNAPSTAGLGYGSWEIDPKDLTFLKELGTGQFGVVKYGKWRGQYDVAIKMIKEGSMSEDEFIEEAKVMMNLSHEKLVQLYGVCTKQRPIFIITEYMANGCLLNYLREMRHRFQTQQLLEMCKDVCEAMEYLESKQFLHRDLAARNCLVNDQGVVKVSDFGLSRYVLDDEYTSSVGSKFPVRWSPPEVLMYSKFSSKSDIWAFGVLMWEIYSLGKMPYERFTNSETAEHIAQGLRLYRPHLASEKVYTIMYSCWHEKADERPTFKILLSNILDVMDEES
# [8] = molecular target: Glycogen synthase kinase-3 alpha (Homo sapiens) (UniProt P49840); assay: Inhibition of GSK3 alpha (unknown origin) at 100 nM by Z-lyte assay
# [9] = Induction of apoptosis in human GSC cells assessed as dead cells by measuring phosphatidylserine externalisation at 10 uM after 7 days in presence of 7-amino-actinomysin by AnnexinV/FITC staining-based flow cytometry (reference value: 1.68%); type: functional
# [10] = molecular target: G protein-coupled receptor kinase 5 (Homo sapiens) (UniProt P34947); assay: Inhibition of GST-tagged full-length human recombinant GRK5 expressed in baculovirus system at 100 nM by Z-lyte assay
# [11] = molecular target: Rho-associated protein kinase 2 (Homo sapiens) (UniProt O75116); assay: Inhibition of catalytic recombinant GST-tagged human ROCK2 expressed in baculovirus system at 100 nM by Z-lyte assay
# [12] = molecular target: Inhibitor of nuclear factor kappa-B kinase subunit alpha (Homo sapiens) (UniProt O15111); assay: Inhibition of His-tagged full-length human IKKalpha expressed in baculovirus system at 100 nM by adapta assay
# [13] = Induction of apoptosis in human GSC cells assessed as live cells by measuring phosphatidylserine externalisation at 10 uM after 7 days by AnnexinV/FITC staining-based flow cytometry (reference value: 87.49%); type: functional
# [14] = molecular target: Mitogen-activated protein kinase 3 (Homo sapiens) (UniProt P27361); assay: Inhibition of GST-tagged full-length recombinant human MAPK3 expressed in baculovirus system at 100 nM by Z-lyte assay
# Mitogen-activated protein kinase 3 (Homo sapiens), sequence (P27361 whole entry): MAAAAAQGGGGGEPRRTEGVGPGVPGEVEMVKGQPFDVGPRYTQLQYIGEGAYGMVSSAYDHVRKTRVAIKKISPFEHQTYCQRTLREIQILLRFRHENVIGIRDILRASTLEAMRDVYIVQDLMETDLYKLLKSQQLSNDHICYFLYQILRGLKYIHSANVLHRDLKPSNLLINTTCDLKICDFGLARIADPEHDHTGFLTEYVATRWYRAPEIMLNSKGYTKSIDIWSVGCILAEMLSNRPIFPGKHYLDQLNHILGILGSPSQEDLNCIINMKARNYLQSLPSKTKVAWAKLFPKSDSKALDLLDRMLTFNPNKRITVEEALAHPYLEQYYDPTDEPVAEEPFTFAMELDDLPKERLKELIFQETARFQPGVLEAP
# [15] = molecular target: PI3-kinase p110-alpha/p85-alpha (Homo sapiens) (UniProt P27986+P42336); assay: Inhibition of His-tagged full-length human recombinant PIK3CA/PIK3R1 expressed in baculovirus system at 100 nM by adapta assay
# [16] = molecular target: CDK7/Cyclin H/MNAT1 (Homo sapiens) (UniProt P51946+P50613+P51948); assay: Inhibition of His-tagged full-length human recombinant CDK7/Cyclin H/MNAT1 expressed in baculovirus system at 100 nM by adapta assay
# [17] = molecular target: Protein kinase C delta type (Homo sapiens) (UniProt Q05655); assay: Inhibition of full-length recombinant human PRKCD expressed in baculovirus system at 100 nM by Z-lyte assay
# Protein kinase C delta type (Homo sapiens), sequence (Q05655 whole entry, looked up): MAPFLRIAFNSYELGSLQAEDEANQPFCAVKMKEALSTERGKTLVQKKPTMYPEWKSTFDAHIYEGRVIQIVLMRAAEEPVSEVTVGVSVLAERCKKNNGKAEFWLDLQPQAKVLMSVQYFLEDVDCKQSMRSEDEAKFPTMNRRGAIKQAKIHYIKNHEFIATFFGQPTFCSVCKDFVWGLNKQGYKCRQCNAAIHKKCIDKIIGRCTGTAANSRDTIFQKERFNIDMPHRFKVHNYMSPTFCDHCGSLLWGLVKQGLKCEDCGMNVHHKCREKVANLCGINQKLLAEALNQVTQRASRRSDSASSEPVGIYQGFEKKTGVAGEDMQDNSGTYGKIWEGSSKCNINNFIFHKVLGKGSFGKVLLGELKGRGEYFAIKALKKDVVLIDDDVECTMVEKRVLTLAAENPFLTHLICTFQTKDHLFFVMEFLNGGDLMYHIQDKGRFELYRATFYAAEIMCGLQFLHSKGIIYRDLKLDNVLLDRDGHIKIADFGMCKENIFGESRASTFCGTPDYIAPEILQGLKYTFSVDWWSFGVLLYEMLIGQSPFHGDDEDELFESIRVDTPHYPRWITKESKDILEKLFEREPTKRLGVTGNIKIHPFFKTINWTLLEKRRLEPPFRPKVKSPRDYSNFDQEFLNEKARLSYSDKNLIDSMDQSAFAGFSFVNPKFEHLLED
# [18] = molecular target: RAC-gamma serine/threonine-protein kinase (Homo sapiens) (UniProt Q9Y243); assay: Inhibition of His-tagged full-length human AKT3 expressed in baculovirus system at 100 nM by Z-lyte assay
# RAC-gamma serine/threonine-protein kinase (Homo sapiens), sequence (Q9Y243 whole entry): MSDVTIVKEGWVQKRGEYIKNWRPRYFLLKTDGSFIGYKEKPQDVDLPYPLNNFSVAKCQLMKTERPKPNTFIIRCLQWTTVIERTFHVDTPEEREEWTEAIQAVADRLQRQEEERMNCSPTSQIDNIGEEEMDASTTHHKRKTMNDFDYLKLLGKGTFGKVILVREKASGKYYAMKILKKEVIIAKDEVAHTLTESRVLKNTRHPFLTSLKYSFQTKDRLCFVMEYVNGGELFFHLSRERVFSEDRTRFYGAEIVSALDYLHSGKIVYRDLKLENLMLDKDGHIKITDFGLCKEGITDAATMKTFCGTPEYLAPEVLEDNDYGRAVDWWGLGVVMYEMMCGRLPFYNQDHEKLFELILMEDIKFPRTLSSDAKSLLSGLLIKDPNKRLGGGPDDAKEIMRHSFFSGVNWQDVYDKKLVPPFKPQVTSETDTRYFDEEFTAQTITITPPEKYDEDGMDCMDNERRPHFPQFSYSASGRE
# [19] = molecular target: Phosphatidylinositol 4-kinase beta (Homo sapiens) (UniProt Q9UBF8); assay: Inhibition of GST-tagged full-length human PI4K beta expressed in baculovirus system at 100 nM by adapta assay
# [20] = system: RAF proto-oncogene serine/threonine-protein kinase (Homo sapiens), P04049 [Y340D,Y341D]; assay: Inhibition of catalytic GST-tagged human RAF1 Y340D/Y341D double mutant expressed in baculovirus system at 100 nM by Z-lyte assay
# [21] = molecular target: Dual specificity mitogen-activated protein kinase kinase 2 (Homo sapiens) (UniProt P36507); assay: Inhibition of His-tagged full-length recombinant human MAP2K2 expressed in baculovirus system at 100 nM by Z-lyte assay
# [22] = molecular target: Serine/threonine-protein kinase Chk2 (Homo sapiens) (UniProt O96017); assay: Inhibition of His-tagged full-length human CHEK2 expressed in baculovirus system at 100 nM by Z-lyte assay
# [23] = system: U-87 MG; assay: Induction of apoptosis in human U87MG cells assessed as dead cells by measuring phosphatidylserine externalisation at 10 uM after 72 hrs in presence of 7-amino-actinomysin by AnnexinV/FITC staining-based flow cytometry (reference value: 2.1%); type: functional, U-87MG ATCC
# [24] = molecular target: Dual specificity protein kinase CLK1 (Homo sapiens) (UniProt P49759); assay: Inhibition of GST-tagged human CLK1 expressed in Escherichia coli at 100 nM by Z-lyte assay
# Dual specificity protein kinase CLK1 (Homo sapiens), sequence (P49759 whole entry, looked up): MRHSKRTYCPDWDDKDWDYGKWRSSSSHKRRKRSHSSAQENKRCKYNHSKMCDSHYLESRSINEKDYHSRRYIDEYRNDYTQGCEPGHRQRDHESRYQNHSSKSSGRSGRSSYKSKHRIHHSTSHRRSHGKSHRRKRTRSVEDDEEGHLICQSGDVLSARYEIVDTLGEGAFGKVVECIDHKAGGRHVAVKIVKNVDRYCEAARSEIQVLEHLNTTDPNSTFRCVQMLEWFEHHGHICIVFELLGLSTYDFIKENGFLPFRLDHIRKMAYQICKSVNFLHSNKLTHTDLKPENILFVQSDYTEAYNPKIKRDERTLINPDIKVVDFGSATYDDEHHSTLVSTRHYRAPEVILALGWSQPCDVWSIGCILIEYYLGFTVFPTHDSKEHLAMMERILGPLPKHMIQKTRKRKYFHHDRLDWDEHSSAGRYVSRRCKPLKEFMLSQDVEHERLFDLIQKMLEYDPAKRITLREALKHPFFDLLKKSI
# [25] = Induction of apoptosis in human GSC cells assessed as early apoptotic cells by measuring phosphatidylserine externalisation at 10 uM after 7 days by AnnexinV/FITC staining-based flow cytometry (reference value: 6.69%); type: functional
# [26] = molecular target: Glycogen synthase kinase-3 beta (Homo sapiens) (UniProt P49841); assay: Inhibition of His-tagged full-length recombinant human GSK3 beta expressed in baculovirus system at 100 nM by Z-lyte assay
# Glycogen synthase kinase-3 beta (Homo sapiens), sequence (P49841 whole entry, looked up): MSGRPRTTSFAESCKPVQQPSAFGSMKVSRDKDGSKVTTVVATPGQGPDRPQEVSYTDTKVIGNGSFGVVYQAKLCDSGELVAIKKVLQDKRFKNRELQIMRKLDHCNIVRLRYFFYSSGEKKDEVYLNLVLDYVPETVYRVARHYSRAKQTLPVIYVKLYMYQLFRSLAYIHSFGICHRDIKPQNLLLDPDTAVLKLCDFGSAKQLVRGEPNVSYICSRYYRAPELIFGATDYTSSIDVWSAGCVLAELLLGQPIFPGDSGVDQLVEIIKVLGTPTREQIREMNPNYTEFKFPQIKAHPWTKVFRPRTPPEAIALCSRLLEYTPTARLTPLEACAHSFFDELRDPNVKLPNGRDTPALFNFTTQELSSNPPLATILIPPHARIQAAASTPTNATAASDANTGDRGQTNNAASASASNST
# Serine/threonine-protein kinase PAK 6 (Homo sapiens), sequence (Q9NQU5 whole entry, looked up): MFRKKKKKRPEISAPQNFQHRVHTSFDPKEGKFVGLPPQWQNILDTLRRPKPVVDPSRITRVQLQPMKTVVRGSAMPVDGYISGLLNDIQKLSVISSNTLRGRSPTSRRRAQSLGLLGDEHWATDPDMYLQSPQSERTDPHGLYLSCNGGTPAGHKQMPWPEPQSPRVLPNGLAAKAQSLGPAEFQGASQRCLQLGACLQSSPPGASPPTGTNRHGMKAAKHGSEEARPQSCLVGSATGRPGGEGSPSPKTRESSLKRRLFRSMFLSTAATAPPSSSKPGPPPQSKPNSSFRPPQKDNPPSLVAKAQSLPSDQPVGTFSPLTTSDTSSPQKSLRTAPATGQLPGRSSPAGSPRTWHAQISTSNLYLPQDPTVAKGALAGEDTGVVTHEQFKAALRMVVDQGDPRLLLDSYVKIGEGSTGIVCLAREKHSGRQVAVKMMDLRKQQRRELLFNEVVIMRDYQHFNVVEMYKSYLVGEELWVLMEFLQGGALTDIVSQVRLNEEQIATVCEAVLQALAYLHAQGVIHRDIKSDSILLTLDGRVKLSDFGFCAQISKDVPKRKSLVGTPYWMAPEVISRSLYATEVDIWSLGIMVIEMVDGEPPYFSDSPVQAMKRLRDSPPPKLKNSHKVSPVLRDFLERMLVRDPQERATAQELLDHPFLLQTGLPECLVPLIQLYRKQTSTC
smiles,measurement,setting,value
O=C(CNC(=O)c1cccn(Cc2ccc(F)c(F)c2)c1=O)Nc1ccc2c(c1)/C(=C/c1cnc[nH]1)C(=O)N2,Imax,[1],41%
same,inhibition,[2],-4%
same,inhibition,[3],Active
same,inhibition,[4],-2%
same,inhibition,[5],17%
same,inhibition,[6],7%
same,inhibition,[7],-3%
same,inhibition,[8],43%
same,Activity,[9],2.35%
same,inhibition,[10],-4%
same,inhibition,[11],2%
same,inhibition,[12],3%
same,Activity,[13],58.6%
same,inhibition,[14],-3%
same,inhibition,[15],20%
same,inhibition,[16],1%
same,inhibition,[17],-7%
same,inhibition,[18],2%
same,inhibition,[19],4%
same,inhibition,[20],10%
same,inhibition,[21],9%
same,inhibition,[22],4%
same,Activity,[23],0.64%
same,inhibition,[24],-2%
same,Activity,[25],16.15%
same,inhibition,[26],24%

# Source: ChEMBL document CHEMBL3822377, “Locking PDK1 in DFG-out conformation through 2-oxo-indole containing molecules: Another tools to fight glioblastoma” (Eur J Med Chem, 2016)
